The record followed here is publication PMC9686747, “Antioxidant, Anti-α-Glucosidase, Antityrosinase, and Anti-Inflammatory Activities of Bioactive Components from Morus alba” (Antioxidants, 2022).

Molecules are shown by their SMILES. Where two headings read alike, the source gives them in different places. Where only a bound is given, the exact number is not on record here.

For data set [1], the system named is nitric oxide (NO) production in RAW 264.7 cells. The experiment in a line: Nitric oxide inhibitory assay (Griess) in LPS-induced RAW264.7 cells. The class given is cell-based, Murine. The note with it: Mus musculus, LPS (100 ng/mL)-induced RAW 264.7 cells, read-out: NO Inhibition IC50. How it is done: (§1) Murine RAW264.7 macrophages were cultured at 37 °C under 5% CO2 using a culture medium that was a mixture of DMEM, 10% FBS, and 1% penicillin [29]. When the cells reached […] full growth, the seeded cells were subjected to NO measurement and iNOS protein assay.
The NO inhibition assay was performed as described in [29], with slight modification. RAW264.7 cells were seeded in 96 wells for 24 h. The next day, they were divided into the following groups: medium, medium with LPS (100 ng/mL) added, medium with the positive control (quercetin) and LPS added, and medium with samples and LPS (100 ng/mL) added. The reaction time between the medium and the sample was 1 h before adding LPS and waiting 20 h after adding LPS. Finally, half of the supernatant was transferred into a new 96-well plate and mixed in a 1:1 ratio with Griess reagent. After 15 min in the dark, the reaction was measured at 550 nm.
For orientation: The Griess reaction detects nitrite, a stable product of nitric oxide.

A further data set has as its target T1, α-glucosidase (Saccharomyces cerevisiae, UniProt P53341).
T1 construct: purchased Sigma-Aldrich
In words: biochemical. It counts as biochemical.

A short description of data set [2]: DPPH radical scavenging activity. The note with it: for EC50: isolated components, read-out: SC50 DPPH. It counts as biochemical. The method, then:
This assay was performed using a previously reported procedure. This experiment needs to be performed in the dark. Briefly, 100 µL of varying concentrations of extracts or compounds were mixed with 100 µL of 200 µM DPPH solution and incubated at room temperature for 30 min, and the absorbance was measured at 520 nm. DPPH radical scavenging activity was calculated using the following equation.
DPPH scavenging activity (%) = (A0 − A1)/A0 × 100, where A1 is the absorbance of the test sample, and A0 is the absorbance of the control (untreated group).

For the next data set, the target named is T2, tyrosinase (Agaricus bisporus, UniProt C7FF04).
T2 construct: purchased Sigma-Aldrich
The experiment in a line: Tyrosinase inhibitory activity assay. It counts as biochemical.

A short description of data set [3]: Superoxide radical scavenging activity. The class given is biochemical. To be noted: isolated components; read-out: SC50 Superoxide. The method, then: This assay was performed using a previously reported procedure. This experiment needs to be performed in the dark. Initially, NBT (300 μM), NADH (468 μM), and PMS (120 μM) were prepared using Tris-HCl buffer (16 mM, pH 8.0). Next, 50 μL of NBT and PMS and 10 μL of the extract or compound were mixed; subsequently, 50 μL of NADH solution was added and incubated at room temperature for 5 min before measuring the absorbance at 560 nm. The equation for the scavenging activity is as follows.
Superoxide radical scavenging activity = (A0 − A1)/A0 × 100, where A0 and A1 are the absorbance of the control (untreated group) and test sample, respectively.

The nature of data set [4]: ABTS radical scavenging activity. It counts as biochemical. The note with it: for EC50: isolated components, read-out: SC50 ABTS. How it is done: This assay was performed using a previously reported procedure. This experiment needs to be performed in the dark. First, the reaction reagent was prepared by mixing 28 mM ABTS solution and 9.6 mM potassium persulfate solution (v/v, 1/1) and left in the dark at 4 °C for 16 h before use. The reaction reagent was diluted with ethanol until the absorbance was 0.70 ± 0.02 at 740 nm. Next, 10 μL of the extract or compound was mixed with 190 μL of the reaction reagent and incubated at room temperature for 5 min before measuring the absorbance at 740 nm. The formula of scavenging activity was calculated as follows.
ABTS radical scavenging activity (%) = (A0 − A1)/A0 × 100, where A0 and A1 are the absorbance of the control (untreated group) and test sample, respectively.

Data set [5] is described as follows: Ferric reducing antioxidant power (FRAP). It counts as biochemical. The method, then:
The FRAP assay was performed using a previously described procedure. This experiment needs to be performed in the dark. First, the reaction reagent was obtained by mixing acetate buffer (pH 3.6), ferric chloride solution (20 mM), and TPTZ solution (10 mM TPTZ in 40 mM HCl) in a ratio of 10:1:1, respectively. Next, 900 μL of the reaction reagent was mixed with 100 μL of the sample or Trolox in an Eppendorf tube, and the absorbance was measured at 593 nm after 40 min in a dry bath at 37 °C. The FRAP of the extracts was determined by a linear standard calibration curve from 0 to 100 mM Trolox with an R^2 value of 0.9999.

The test system of data set [6] is inducible nitric oxide synthase (iNOS). The experiment in a line: Western blot analysis of iNOS expression. The note with it: LPS (100 ng/mL)-induced cells, 24 h; compared to the LPS-induced group; Figure 4. It counts as cell-based, Murine. The method, then:
as §1
Western blot analysis was performed according to the reference method, with slight modifications. Cells were cotreated with varying concentrations of samples and LPS (100 ng/mL) for 24 h. After washing the cells with ice-cold PBS, the proteins were collected with cell lysis buffer and stored at −20 °C for subsequent experiments. The quantified proteins were separated using a 10% SDS-polyacrylamide gel. Next, the proteins were transferred to polyvinylidene fluoride (PVDF) membranes by electrophoresis. The transferred PVDF membranes were immersed in 2% BSA blocking buffer for 2 h and washed two to three times with TBST. Proteins were visualized by specific primary antibodies and soaked overnight. The next day, PVDF membranes were subjected to the TBST wash step again to remove residual primary antibodies and soaked with secondary antibodies for 2 h. Finally, after repeating the TBST wash two to three times, immunoreactivity was detected with ECL reagents, and samples were exposed with a cold light meter and quantified with Image J.
On the technique in general: In western blotting, separated proteins are transferred to a membrane and probed.

For another data set, the system named is RAW 264.7 cells. The experiment in a line: MTT assay, cell viability. It counts as cell-based, Murine. The method, then: as §1
The MTT assay was performed according to the reference method, with slight modifications. Cells from the 96-well plates prepared for the NO inhibition assay were added to MTT stock solution (5 mg/mL) and diluted 20-fold with medium. After 2 h, all liquid was removed, and DMSO was added. The absorbance was measured at 570 nm.
On the technique in general: Tetrazolium dyes change colour on reduction, which living cells bring about.

Setting [7] is: isolated components, mM Trolox equivalents per gram.
Setting [8] is: solvent extracts, 50% free radical scavenging.
Where [9] appears, read: isolated compounds, read-out: IC50 α-Glucosidase.

T1 sequence (P53341 whole entry): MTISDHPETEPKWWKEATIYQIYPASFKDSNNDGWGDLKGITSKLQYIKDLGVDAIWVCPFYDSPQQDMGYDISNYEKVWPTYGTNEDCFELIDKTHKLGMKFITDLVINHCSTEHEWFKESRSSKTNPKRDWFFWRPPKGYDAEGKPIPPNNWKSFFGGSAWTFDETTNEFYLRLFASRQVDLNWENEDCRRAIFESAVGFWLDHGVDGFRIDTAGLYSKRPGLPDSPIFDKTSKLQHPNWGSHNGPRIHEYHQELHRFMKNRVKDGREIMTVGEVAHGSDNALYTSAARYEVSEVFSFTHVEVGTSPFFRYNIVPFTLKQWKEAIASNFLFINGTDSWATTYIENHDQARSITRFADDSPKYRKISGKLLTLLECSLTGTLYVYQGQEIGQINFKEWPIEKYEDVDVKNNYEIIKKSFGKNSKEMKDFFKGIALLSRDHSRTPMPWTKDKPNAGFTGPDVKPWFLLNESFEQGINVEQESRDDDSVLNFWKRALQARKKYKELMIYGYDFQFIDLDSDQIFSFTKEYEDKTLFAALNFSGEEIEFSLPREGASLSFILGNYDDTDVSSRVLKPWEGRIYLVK
T2 sequence (C7FF04 1-392 limits assumed): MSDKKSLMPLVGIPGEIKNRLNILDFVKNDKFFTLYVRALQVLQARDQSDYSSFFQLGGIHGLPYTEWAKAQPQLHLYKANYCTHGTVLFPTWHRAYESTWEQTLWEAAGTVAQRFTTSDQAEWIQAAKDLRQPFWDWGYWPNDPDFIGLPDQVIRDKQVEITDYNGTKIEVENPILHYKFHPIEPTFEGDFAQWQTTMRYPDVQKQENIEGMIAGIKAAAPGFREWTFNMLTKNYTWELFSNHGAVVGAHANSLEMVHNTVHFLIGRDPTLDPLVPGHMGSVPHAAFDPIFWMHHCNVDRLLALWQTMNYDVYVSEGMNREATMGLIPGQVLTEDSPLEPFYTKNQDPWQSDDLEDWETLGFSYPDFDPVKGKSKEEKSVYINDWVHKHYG

Consider `CC(C)=CCc1c(-c2ccc(O)cc2O)oc2c([C@H]3C=C(C)C[C@@H](c4ccc(O)cc4O)[C@@H]3C(=O)c3ccc(O)cc3O)c(O)cc(O)c2c1=O` [Kuwanon G (5), kuwanon G], for which the figures for the concentration for half-maximal inhibition (IC50) (in [1] (isolated components); against α-glucosidase; at tyrosinase) were 17.8 ± 0.5 µM, 7 ± 0.31 µM and 100 ± 9.62 µM, respectively. Moreover, the EC50 in data set [2] is above 200 µM; in data set [3] it was 188 ± 19.1 µM; in [4], 9.28 ± 1.02 µM. The “TE FRAP” value in [5] (setting [7]) was 3549.22 ± 160.65 mM/g; in data set [5] (isolated components, mM Trolox equivalents per gram, listed as 5) it was 3549.22 ± 160.65 mM/g.

For the compound `Oc1cc(O)cc(/C=C/c2ccc(O)cc2O)c1` [Oxyresveratrol (3), oxyresveratrol], the IC50 in data set [1] (isolated components) was 25.4 ± 3.47 µM; at α-glucosidase it was 8.35 ± 0.46 µM; against tyrosinase it was 1.89 ± 0.59 µM. The EC50 in data set [2] was 44.4 ± 12.5 µM; in [3], above 200 µM; in data set [4] it was 9.5 ± 2.08 µM. Further, the “TE FRAP” value in [5] (setting [7]) is reported as 2402.22 ± 32.91 mM/g; in [5] (isolated components, mM Trolox equivalents per gram, listed as 3), 2402.22 ± 32.91 mM/g.

Turning to `O=c1c(O)c(-c2ccc(O)cc2O)oc2cc(O)cc(O)c12` [Morin (1), morin], the IC50 was 43.3 ± 4.61 µM in [1] (isolated components), 90.1 ± 10.2 µM against α-glucosidase and 199 ± 84.4 µM against tyrosinase. Moreover, the EC50 in data set [2] amounted to 17.5 ± 3.43 µM; in data set [3], 54.5 ± 19 µM; in data set [4] it was 12.7 ± 5.98 µM. The “TE FRAP” value in [5] (setting [7]) is recorded as 2963.28 ± 63.65 mM/g; in [5] (isolated components, mM Trolox equivalents per gram, listed as 1), 2963.28 ± 63.65 mM/g.

For the compound `Cc1cc(C(C)(C)C)c(O)c(C(C)(C)C)c1` [BHT, butylated hydroxytoluene, reference compound], the EC50 came out at 89.8 ± 7.03 µM in data set [2] and 116 ± 25.1 µM in [4]. Moreover, the “SC50 DPPH” value in data set [2] (setting [8]) amounted to 19.75 ± 1.79 µg/mL. For the same compound, the “SC50 ABTS” value in [4] (setting [8]) was found to be 25.87 ± 5.83 µg/mL. For the same compound, the “TE FRAP” value in [5] (setting [7]) worked out at 4385.56 ± 78.88 mM/g; in [5] (solvent extracts, mM Trolox equivalents per gram of extract), 4385.56 ± 45.54 mM/g.

For `CC(C)=CCc1c(O)ccc(C(=O)[C@@H]2[C@@H](c3c(O)cc(O)c4c(=O)c(CC=C(C)C)c(-c5ccc(O)cc5O)oc34)C=C(C)C[C@H]2c2ccc(O)cc2O)c1O` [Kuwanon H (6), kuwanon H], the 50% inhibitory concentration (IC50) in data set [1] (isolated components) stood at 40.5 ± 4.38 µM; at α-glucosidase (setting [9]), 4.06 ± 0.12 µM; at tyrosinase, 218 ± 41 µM. Moreover, the “α-glucosidase inhibition, times more effective than acarbose” value at α-glucosidase (versus positive control acarbose) is “approximately 100 times”. In addition, on α-glucosidase (versus the other isolated compounds), the “α-glucosidase inhibition, times more potent than other compounds” value was 2–20 times. Besides, the values for the EC50 in data set [2], in [3] and in data set [4] were above 200 µM, above 200 µM and 8.68 ± 0.93 µM, respectively. Moreover, the “TE FRAP” value in data set [5] (setting [7]) is reported as 1750.96 ± 36.30 mM/g.

As to `CC(C)=CCc1c(-c2ccc(O)cc2O)oc2c3c(cc(O)c2c1=O)OC(C)(C)C=C3` [Morusin (2), morusin], the values for the half-inhibitory concentration (IC50) (in [1] (isolated components); at α-glucosidase (setting [9]); against tyrosinase) were 9.87 ± 0.59 µM, 15.7 ± 2.15 µM and above 400 µM, respectively. In data set [6], the “iNOS expression (Western blot)” value is “significantly reducing the expression of iNOS”. Moreover, the results for the EC50 in data set [2], in data set [3] and in data set [4] were above 200 µM, above 200 µM and 44.2 ± 8.07 µM, respectively. In addition, the “TE FRAP” value in data set [5] (setting [7]) worked out at 583.43 ± 25.79 mM/g.

As to `O=c1ccc2ccc(O)cc2o1` [Umbelliferone (4), umbelliferone], the IC50 is 36.8 ± 2.26 µM in data set [1] (isolated components); 492 ± 12.8 µM on α-glucosidase (setting [9]); above 400 µM on tyrosinase (isolated compounds, read-out: IC50 Tyrosinase). Also, the EC50 in [2], in data set [3] and in data set [4] was above 200 µM throughout. The “TE FRAP” value in [5] (setting [7]) is 145.23 ± 35.46 mM/g.

With `O=c1c(O)c(-c2ccc(O)c(O)c2)oc2cc(O)cc(O)c12` [Quercetin, quercetin, reference compound], the 50% inhibitory concentration (IC50) in data set [1] (isolated components) came out at 13.2 ± 2 µM; in [1] (solvent extracts), 3.98 ± 0.28 µg/mL. Also, the “cell viability (MTT)” value with RAW 264.7 cells (isolated compounds, Figure 3, except for the high dose of 100 μM) is “slight cytotoxicity at higher doses”; in the data set with RAW 264.7 cells (solvent extracts, Figure 1) it was “slight cytotoxicity at higher doses”.

As usually defined, the IC50 is the point on the concentration scale where inhibition reaches its midpoint.
